How the values were obtained:
[1] = Measurement of the dissolution rate for the dried crystals (dissolution tester); type: physicochemical; details: 0.5 g crystals in 900 ml ion exchanged water kept at 20 °C, stirring 100 rpm
Procedure: The dissolution rates of the A-type crystals (Reference Example 4 (b)) and the D-type crystals (Example 1) were determined in the following method. The apparatus used was "DISSOLUTION TESTER" (NTR-6100) manufactured by Toyama Sangyo K. K. 0.5 g each of the A-type crystals and D-type crystals were introduced into 900 ml ion exchanged water kept at 20 °C at a stirring in the number of revolution of 100 rpm, and the time which elapsed until the crystals came to be completely dissolved was measured.

[2] = cited from earlier work

| time which elapsed until the crystals came to be completely dissolved [1] | Structure (SMILES) | efficacy of sweetness relative to Aspartame ([2]; in weight ratio, versus Aspartame) | efficacy of sweetness relative to sucrose (table sugar) ([2]; versus sucrose (table sugar)) |
| --- | --- | --- | --- |
| about 5 minutes | COC(=O)[C@H](Cc1ccccc1)NC(=O)[C@H](CC(=O)O)NCCC(C)(C)C [D-type crystals, N-[N-(3,3-dimethylbutyl)-L-α-aspartyl]-L-phenylalanine methyl ester] | – | – |
| – | COC(=O)[C@H](Cc1ccccc1)NC(=O)[C@H](CC(=O)O)NCCC(C)(C)C [N-(3,3-dimethylbutyl)-APM, N-[N-(3,3-dimethylbutyl)-L-α-aspartyl]-L-phenylalanine methyl ester] | at least 50 times | about 10,000 times |
| about 35 minutes | COC(=O)[C@H](Cc1ccccc1)NC(=O)[C@H](CC(=O)O)NCCC(C)(C)C [A-type crystals, N-[N-(3,3-dimethylbutyl)-L-α-aspartyl]-L-phenylalanine methyl ester, reference compound] | – | – |
